According to PMC8236048, “Pharmaceutical design of a delivery system for the bacteriocin lacticin 3147” (Drug Delivery and Translational Research, 2021):

Assays:
[1] = system: L. monocytogenes ATCC 1916; test: Growth curve bioactivity assay versus L. monocytogenes ATCC 1916; type: cell-based; conditions: 0.5 h, 37 °C, 300 rpm, 0.2 µm PES filtered, growth curve 24 h
Method: An overnight culture of L. monocytogenes ATCC1916 was grown in TSB media supplemented with 6 g/L yeast at 37 °C. Freeze-dried Ltnα and Ltnβ were resuspended individually in 70% IPA to make a 1-mg/ml solution and filtered through a 0.2-µm filter (polyethersulfone) PES filter. They were then diluted in sterile PBS to a final peptide concentration of 50 µg/ml. Peptide solutions were added in triplicate to a 96-well plate with sufficient PBS to give a volume of 50 µl. 150 µl of diluted bacterial cell culture (optical density (OD) of 0.1 at 595 nm) was then added to the wells. Final peptide concentrations of 150 nM (0.50 µg/ml Ltnα, 0.43 µg/ml Ltnβ), 300 nM (0.99 µg/ml Ltnα, 0.85 µg/ml Ltnβ), and 400 nM (1.31 µg/ml Ltnα, 1.14 µg/ml Ltnβ) were obtained when the wells were filled to 200 µl. Blanks were set up in triplicate with media only and PBS only. The three control wells were also set up with bacterial culture and PBS only. The 96-well plate was incubated in a Biotek ELx808 Ultra microplate reader at 37 °C for 24 h. Readings were taken at a wavelength of 590 nm every 30 min for 24 h with the plate shaken mildly before each reading.
An excess quantity of freeze-dried Ltnα and Ltnβ were resuspended individually in PBS buffer/FaSSGF/FaSSIF. The samples were then incubated for 0.5 h at 37 ± 0.5 °C with stirring at 300 rpm. At the end of the incubation period, samples were filtered through a 0.2-µm PES syringe filter and employed in the in vitro activity assay. Briefly, 25 µl of each of the filtered peptide solutions were added in triplicate to the same wells of a 96-well plate. Three control wells were set up containing 50 µl of PBS alone. 150 μl of L. monocytogenes ATCC 1916 with an OD of 0.1 at 595 nm was added to each well. The 96-well plate was then incubated in a Biotek ELx808 Ultra microplate reader at 37 °C for 24 h. The readings were taken as previously described.

[2] = system: L. monocytogenes ATCC1916; test: Well diffusion assay, lacticin 3147 SLNs vs free peptide; type: cell-based; conditions: 6-mm wells, 12.5 µL α + 12.5 µL β component, 0.2 µm filtered, free peptide in water at the total peptide content of the SLNs, mean ± SD
Method: The activity of the lacticin 3147 SLNs was evaluated using the well diffusion assay method, on TSA supplemented with 6 g/L yeast. The inhibition zones were reported in millimetre (mm) using electronic Vernier callipers. […] Wells were bored in the agar after it hardened using a sterile 6-mm cork borer. α-SLN and β-SLN were filtered using a 0.2-μm PES filter (SLNs can pass through), and 12.5 μL of each was added to the same well. The blank SLNs were used as negative controls (25 μL). […] The free peptides were filtered again using a 0.2-μm PES filter before addition to the wells to ensure sterility. All tests were performed in triplicate.

L. monocytogenes = conditions: cited from earlier work
Source text: (§1) Approximately 223,900 C. difficile infections and 12,800 resulting deaths were reported in the USA in 2017 [17]. Treatment failures and recurrences of infection after the use of antibiotics are increasingly common, with a 2–38% failure rate for vancomycin and 8–50% for metronidazole. A more virulent strain of C. d ...

eukaryotic cells = conditions: cited from earlier work
Source text: as §1

C. difficile = conditions: antimicrobial-resistant bacteria; cited from earlier work
Source text: as §1

[3] = system: methicillin-resistant S. aureus (MRSA); conditions: cited from earlier work
Source text: as §1

lacticin 3147
activity against L. monocytogenes ATCC 1916 after addition in excess to FaSSGF and filtration ([1]; FaSSGF (pH 1.6)): active | activity against L. monocytogenes ATCC 1916 after addition in excess to FaSSIF and filtration ([1]; FaSSIF (pH 6.5)): active | activity against L. monocytogenes ATCC 1916 after addition in excess to PBS and filtration ([1]; PBS (pH 7.4)): active | zone of inhibition [2]: 12.9 ± 0.3 mm | activity against L. monocytogenes (L. monocytogenes): active at nanomolar concentrations | toxicity to eukaryotic cells (eukaryotic cells): non-toxic | activity against C. difficile (C. difficile): active at nanomolar concentrations | activity against methicillin-resistant S. aureus (MRSA) [3]: active at nanomolar concentrations
